In the NIST ThermoML archive (doi:10.1016/j.fluid.2015.03.015):
Where “and” joins values, the source holds several entries; their conditions need not be identical. Equal entries are not always repeated.

Assay: refractive index (other wavelength) (dimensionless); xn = mol fraction of the nth substance listed

CCCCCCCC[n+]1ccn(C)c1.F[B-](F)(F)F [1-methyl-3-octylimidazolium tetrafluoroborate] + CCCCCCCO
Minimum deviation
Conditions	refractive index
298.87 K, Liquid mixture 1, Wavelength=623.8 nm, x1 = 0.01	1.4213
298.87 K, Liquid mixture 2, Wavelength=623.8 nm, x1 = 0.382	1.4264
299.67 K, Liquid mixture 1, Wavelength=623.8 nm, x1 = 0.011	1.421
299.67 K, Liquid mixture 2, Wavelength=623.8 nm, x1 = 0.371	1.426
300.45 K, Liquid mixture 1, Wavelength=623.8 nm, x1 = 0.011	1.4207
300.45 K, Liquid mixture 2, Wavelength=623.8 nm, x1 = 0.359	1.4256
301.2 K, Liquid mixture 1, Wavelength=623.8 nm, x1 = 0.016	1.4205
301.2 K, Liquid mixture 2, Wavelength=623.8 nm, x1 = 0.347	1.4252
301.93 K, Liquid mixture 1, Wavelength=623.8 nm, x1 = 0.015	1.4202
301.93 K, Liquid mixture 2, Wavelength=623.8 nm, x1 = 0.335	1.4248
302.63 K, Liquid mixture 1, Wavelength=623.8 nm, x1 = 0.019	1.42
302.63 K, Liquid mixture 2, Wavelength=623.8 nm, x1 = 0.33	1.4245
303.31 K, Liquid mixture 1, Wavelength=623.8 nm, x1 = 0.023	1.4198
303.31 K, Liquid mixture 2, Wavelength=623.8 nm, x1 = 0.317	1.4241
303.94 K, Liquid mixture 1, Wavelength=623.8 nm, x1 = 0.025	1.4196
303.94 K, Liquid mixture 2, Wavelength=623.8 nm, x1 = 0.302	1.4237
304.5 K, Liquid mixture 1, Wavelength=623.8 nm, x1 = 0.027	1.4194
304.5 K, Liquid mixture 2, Wavelength=623.8 nm, x1 = 0.294	1.4234
305 K, Liquid mixture 1, Wavelength=623.8 nm, x1 = 0.031	1.4193
305 K, Liquid mixture 2, Wavelength=623.8 nm, x1 = 0.284	1.4231
305.41 K, Liquid mixture 1, Wavelength=623.8 nm, x1 = 0.035	1.4192
305.41 K, Liquid mixture 2, Wavelength=623.8 nm, x1 = 0.272	1.4228
305.78 K, Liquid mixture 1, Wavelength=623.8 nm, x1 = 0.037	1.4191
305.78 K, Liquid mixture 2, Wavelength=623.8 nm, x1 = 0.259	1.4225
306.09 K, Liquid mixture 1, Wavelength=623.8 nm, x1 = 0.038	1.419
306.09 K, Liquid mixture 2, Wavelength=623.8 nm, x1 = 0.253	1.4223
306.34 K, Liquid mixture 1, Wavelength=623.8 nm, x1 = 0.043	1.419
306.34 K, Liquid mixture 2, Wavelength=623.8 nm, x1 = 0.244	1.4221
306.54 K, Liquid mixture 1, Wavelength=623.8 nm, x1 = 0.048	1.419
306.54 K, Liquid mixture 2, Wavelength=623.8 nm, x1 = 0.242	1.422
306.7 K, Liquid mixture 1, Wavelength=623.8 nm, x1 = 0.051	1.419
306.7 K, Liquid mixture 2, Wavelength=623.8 nm, x1 = 0.232	1.4218
306.83 K, Liquid mixture 1, Wavelength=623.8 nm, x1 = 0.06	1.4191
306.83 K, Liquid mixture 2, Wavelength=623.8 nm, x1 = 0.228	1.4217
306.93 K, Liquid mixture 1, Wavelength=623.8 nm, x1 = 0.062	1.4191
306.93 K, Liquid mixture 2, Wavelength=623.8 nm, x1 = 0.224	1.4216
307.02 K, Liquid mixture 1, Wavelength=623.8 nm, x1 = 0.064	1.4191
307.02 K, Liquid mixture 2, Wavelength=623.8 nm, x1 = 0.219	1.4215
307.1 K, Liquid mixture 1, Wavelength=623.8 nm, x1 = 0.071	1.4192
307.1 K, Liquid mixture 2, Wavelength=623.8 nm, x1 = 0.221	1.4215
307.16 K, Liquid mixture 1, Wavelength=623.8 nm, x1 = 0.073	1.4192
307.16 K, Liquid mixture 2, Wavelength=623.8 nm, x1 = 0.215	1.4214
307.21 K, Liquid mixture 1, Wavelength=623.8 nm, x1 = 0.08	1.4193
307.21 K, Liquid mixture 2, Wavelength=623.8 nm, x1 = 0.217	1.4214
307.26 K, Liquid mixture 1, Wavelength=623.8 nm, x1 = 0.081	1.4193
307.26 K, Liquid mixture 2, Wavelength=623.8 nm, x1 = 0.211	1.4213
307.3 K, Liquid mixture 1, Wavelength=623.8 nm, x1 = 0.081	1.4193
307.3 K, Liquid mixture 2, Wavelength=623.8 nm, x1 = 0.204	1.4212
307.33 K, Liquid mixture 1, Wavelength=623.8 nm, x1 = 0.082	1.4193
307.33 K, Liquid mixture 2, Wavelength=623.8 nm, x1 = 0.198	1.4211
307.36 K, Liquid mixture 1, Wavelength=623.8 nm, x1 = 0.089	1.4194
307.36 K, Liquid mixture 2, Wavelength=623.8 nm, x1 = 0.199	1.4211
307.39 K, Liquid mixture 1, Wavelength=623.8 nm, x1 = 0.089	1.4194
307.39 K, Liquid mixture 2, Wavelength=623.8 nm, x1 = 0.193	1.421
307.41 K, Liquid mixture 1, Wavelength=623.8 nm, x1 = 0.09	1.4194
307.41 K, Liquid mixture 2, Wavelength=623.8 nm, x1 = 0.186	1.4209
307.44 K, Liquid mixture 1, Wavelength=623.8 nm, x1 = 0.096	1.4195
307.44 K, Liquid mixture 2, Wavelength=623.8 nm, x1 = 0.187	1.4209
307.45 K, Liquid mixture 1, Wavelength=623.8 nm, x1 = 0.097	1.4195
307.45 K, Liquid mixture 2, Wavelength=623.8 nm, x1 = 0.18	1.4208
307.47 K, Liquid mixture 1, Wavelength=623.8 nm, x1 = 0.097	1.4195
307.47 K, Liquid mixture 2, Wavelength=623.8 nm, x1 = 0.181	1.4208
307.48 K, Liquid mixture 1, Wavelength=623.8 nm, x1 = 0.097	1.4195
307.48 K, Liquid mixture 2, Wavelength=623.8 nm, x1 = 0.174	1.4207
307.49 K, Liquid mixture 1, Wavelength=623.8 nm, x1 = 0.104	1.4196
307.49 K, Liquid mixture 2, Wavelength=623.8 nm, x1 = 0.175	1.4207
307.5 K, Liquid mixture 1, Wavelength=623.8 nm, x1 = 0.104	1.4196
307.5 K, Liquid mixture 2, Wavelength=623.8 nm, x1 = 0.168	1.4206
307.51 K, Liquid mixture 1, Wavelength=623.8 nm, x1 = 0.104	1.4196
307.51 K, Liquid mixture 2, Wavelength=623.8 nm, x1 = 0.168	1.4206
307.52 K, Liquid mixture 1, Wavelength=623.8 nm, x1 = 0.104	1.4196
307.52 K, Liquid mixture 1, Wavelength=623.8 nm, x1 = 0.111	1.4197
307.52 K, Liquid mixture 2, Wavelength=623.8 nm, x1 = 0.155	1.4204
307.52 K, Liquid mixture 2, Wavelength=623.8 nm, x1 = 0.162	1.4205 and 1.4205
307.53 K, Liquid mixture 1, Wavelength=623.8 nm, x1 = 0.111	1.4197
307.53 K, Liquid mixture 1, Wavelength=623.8 nm, x1 = 0.117	1.4198 and 1.4198
307.53 K, Liquid mixture 2, Wavelength=623.8 nm, x1 = 0.149	1.4203
307.53 K, Liquid mixture 2, Wavelength=623.8 nm, x1 = 0.155	1.4204

85 kPa, Liquid, Wavelength=632.8 nm, Minimum Deviation
Conditions	refractive index
301.61 K, x1 = 0.7	1.4285
302.37 K, x1 = 0.8	1.429
302.37 K, x1 = 0.898	1.4299
303.54 K, x1 = 0.7	1.4279
303.94 K, x1 = 0.898	1.4295
303.98 K, x1 = 0.8	1.4286
305.36 K, x1 = 0.7	1.4274
305.43 K, x1 = 0.898	1.4291
305.58 K, x1 = 0.5	1.4254
305.64 K, x1 = 0.8	1.4282
306.75 K, x1 = 0.6	1.4262
307.04 K, x1 = 0.7	1.4269
307.1 K, x1 = 0.8	1.4278
307.12 K, x1 = 0.898	1.4286
307.21 K, x1 = 0.5	1.4249
307.74 K, x1 = 0.2	1.421
307.74 K, x1 = 0.3	1.4225
308 K, x1 = 0.399	1.4235
308.01 K, x1 = 0.1	1.4195
308.5 K, x1 = 0.7	1.4265
308.52 K, x1 = 0.6	1.4256
308.6 K, x1 = 0.5	1.4245
308.63 K, x1 = 0.8	1.4274
309.13 K, x1 = 0.3	1.422
309.27 K, x1 = 0.898	1.428
309.33 K, x1 = 0.2	1.4204
309.52 K, x1 = 0.1	1.4189
309.56 K, x1 = 0.399	1.423
310.16 K, x1 = 0.5	1.424
310.34 K, x1 = 0.7	1.426
310.34 K, x1 = 0.8	1.4269
310.75 K, x1 = 0.3	1.4214
310.81 K, x1 = 0.6	1.4249
310.88 K, x1 = 0.2	1.4199
311.04 K, x1 = 0.1	1.4183
311.13 K, x1 = 0.399	1.4225
311.28 K, x1 = 0.898	1.4274
311.69 K, x1 = 0.5	1.4235
312.29 K, x1 = 0.3	1.4209
312.54 K, x1 = 0.2	1.4193
312.58 K, x1 = 0.1	1.4178
312.73 K, x1 = 0.6	1.4243
313.03 K, x1 = 0.399	1.4219
313.17 K, x1 = 0.5	1.4231
313.86 K, x1 = 0.3	1.4204
314.02 K, x1 = 0.2	1.4188
314.06 K, x1 = 0.1	1.4172
314.31 K, x1 = 0.399	1.4214
314.64 K, x1 = 0.6	1.4237
315.45 K, x1 = 0.3	1.4198
315.63 K, x1 = 0.1	1.4166
315.63 K, x1 = 0.2	1.4183
316.32 K, x1 = 0.399	1.4208
316.32 K, x1 = 0.6	1.4232
